Data from publication PMC4399811 (Bioorganic & medicinal chemistry letters, 2015).
pEC50, pIC50: −log10 of the molar value. Converted amounts (≈) assume the structure as drawn.

Tests used:
CYP3A4 = CYP3A4 (Homo sapiens, UniProt P08684); experiment: CYP inhibition cocktail assay using HLM and known substrates
CYP2D6 = CYP2D6 (Homo sapiens, UniProt P10635); experiment: as above
CYP1A2 = target: T1, CYP1A2 (Homo sapiens, UniProt P05177); experiment: as above
T1 sequence (P05177 1-516): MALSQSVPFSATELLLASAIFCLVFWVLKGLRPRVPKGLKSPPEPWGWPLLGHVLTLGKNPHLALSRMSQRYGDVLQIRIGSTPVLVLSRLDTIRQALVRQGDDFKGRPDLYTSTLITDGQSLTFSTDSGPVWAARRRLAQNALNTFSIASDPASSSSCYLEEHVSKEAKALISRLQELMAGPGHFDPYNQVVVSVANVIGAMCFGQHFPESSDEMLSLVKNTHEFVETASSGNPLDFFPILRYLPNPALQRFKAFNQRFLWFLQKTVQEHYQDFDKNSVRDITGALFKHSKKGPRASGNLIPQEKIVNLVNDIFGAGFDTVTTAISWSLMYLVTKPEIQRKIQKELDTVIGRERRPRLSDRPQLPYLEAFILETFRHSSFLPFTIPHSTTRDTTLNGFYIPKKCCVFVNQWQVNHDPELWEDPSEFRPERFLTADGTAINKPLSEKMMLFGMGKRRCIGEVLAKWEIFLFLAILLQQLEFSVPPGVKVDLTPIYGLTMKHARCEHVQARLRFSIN

mGlu3 [1] = target: T2, mGlu3 (Homo sapiens, UniProt Q14832); experiment: cell-based
[2] = test system: other mGlu receptors (mGlu1–4,6–8, except mGlu3); experiment: selectivity profiling against the other mGlu receptors; format: cell-based; details: read-out: other mGlu EC50; mGlu receptors other than mGlu5 and mGlu3
CYP2C9 = CYP2C9 (Homo sapiens, UniProt P11712); experiment: CYP inhibition cocktail assay using HLM and known substrates
rats = experiment: adverse effects in rats; format: in vivo, rat
mGlu3 [3] = target: T2, mGlu3; details: NAM
rat mGlu5 receptors = rat mGlu5 receptors (Rattus norvegicus, UniProt P31424); experiment: 'triple add' calcium mobilization assay, mGlu5 PAM/NAM/agonist modes; format: cell-based; details: for fold increase in mGlu5 potency vs series 3 counterpart: dihydro analogue 4 vs corresponding analogue 3
[4] = solubility in fasted simulated intestinal fluid; format: physicochemical; details: fasted simulated intestinal fluid (FaSSIF), pH 7.2, fassif
[5] = test system: amphetamine-induced hyperlocomotion; experiment: reversal of amphetamine-induced hyperlocomotion; details: rat
dogs = experiment: adverse effects in in vivo PK studies in dogs; parameters: species or system dog; details: 0.5 mg/mL i.v.
in vivo PK study in rats = details: rat

Chain of rat mGlu5 receptors (P31424 21-1203): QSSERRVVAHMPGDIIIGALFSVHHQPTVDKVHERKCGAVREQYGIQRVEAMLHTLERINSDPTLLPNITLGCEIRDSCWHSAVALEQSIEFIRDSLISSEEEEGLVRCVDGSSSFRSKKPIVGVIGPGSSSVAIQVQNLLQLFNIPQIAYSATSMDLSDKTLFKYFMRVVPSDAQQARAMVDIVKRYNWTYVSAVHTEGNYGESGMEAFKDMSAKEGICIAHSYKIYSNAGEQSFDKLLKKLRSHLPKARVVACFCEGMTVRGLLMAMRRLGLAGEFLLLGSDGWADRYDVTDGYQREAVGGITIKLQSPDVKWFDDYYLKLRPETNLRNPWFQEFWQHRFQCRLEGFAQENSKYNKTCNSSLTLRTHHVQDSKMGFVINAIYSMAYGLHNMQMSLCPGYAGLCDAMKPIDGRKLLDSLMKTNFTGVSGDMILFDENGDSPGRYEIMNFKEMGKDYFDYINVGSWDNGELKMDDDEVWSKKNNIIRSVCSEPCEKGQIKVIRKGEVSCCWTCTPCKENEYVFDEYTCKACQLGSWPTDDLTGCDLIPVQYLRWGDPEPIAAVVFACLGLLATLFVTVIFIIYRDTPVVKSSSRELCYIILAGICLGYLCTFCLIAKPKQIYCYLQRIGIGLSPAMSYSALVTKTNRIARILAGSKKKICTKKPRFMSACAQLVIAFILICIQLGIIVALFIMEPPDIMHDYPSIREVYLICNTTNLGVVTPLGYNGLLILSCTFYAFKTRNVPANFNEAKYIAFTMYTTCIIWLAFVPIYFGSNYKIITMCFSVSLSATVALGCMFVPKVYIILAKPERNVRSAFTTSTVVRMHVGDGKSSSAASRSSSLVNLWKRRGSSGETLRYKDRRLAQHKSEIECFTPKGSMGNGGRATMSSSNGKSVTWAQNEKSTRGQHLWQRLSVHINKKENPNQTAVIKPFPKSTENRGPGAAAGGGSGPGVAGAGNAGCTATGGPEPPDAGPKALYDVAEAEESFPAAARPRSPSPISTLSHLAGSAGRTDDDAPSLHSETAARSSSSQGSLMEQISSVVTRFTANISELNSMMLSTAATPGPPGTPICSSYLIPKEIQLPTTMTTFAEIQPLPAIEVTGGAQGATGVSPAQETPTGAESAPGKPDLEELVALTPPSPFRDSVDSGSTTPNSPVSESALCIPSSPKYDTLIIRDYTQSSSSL
T2 sequence (Q14832 23-879): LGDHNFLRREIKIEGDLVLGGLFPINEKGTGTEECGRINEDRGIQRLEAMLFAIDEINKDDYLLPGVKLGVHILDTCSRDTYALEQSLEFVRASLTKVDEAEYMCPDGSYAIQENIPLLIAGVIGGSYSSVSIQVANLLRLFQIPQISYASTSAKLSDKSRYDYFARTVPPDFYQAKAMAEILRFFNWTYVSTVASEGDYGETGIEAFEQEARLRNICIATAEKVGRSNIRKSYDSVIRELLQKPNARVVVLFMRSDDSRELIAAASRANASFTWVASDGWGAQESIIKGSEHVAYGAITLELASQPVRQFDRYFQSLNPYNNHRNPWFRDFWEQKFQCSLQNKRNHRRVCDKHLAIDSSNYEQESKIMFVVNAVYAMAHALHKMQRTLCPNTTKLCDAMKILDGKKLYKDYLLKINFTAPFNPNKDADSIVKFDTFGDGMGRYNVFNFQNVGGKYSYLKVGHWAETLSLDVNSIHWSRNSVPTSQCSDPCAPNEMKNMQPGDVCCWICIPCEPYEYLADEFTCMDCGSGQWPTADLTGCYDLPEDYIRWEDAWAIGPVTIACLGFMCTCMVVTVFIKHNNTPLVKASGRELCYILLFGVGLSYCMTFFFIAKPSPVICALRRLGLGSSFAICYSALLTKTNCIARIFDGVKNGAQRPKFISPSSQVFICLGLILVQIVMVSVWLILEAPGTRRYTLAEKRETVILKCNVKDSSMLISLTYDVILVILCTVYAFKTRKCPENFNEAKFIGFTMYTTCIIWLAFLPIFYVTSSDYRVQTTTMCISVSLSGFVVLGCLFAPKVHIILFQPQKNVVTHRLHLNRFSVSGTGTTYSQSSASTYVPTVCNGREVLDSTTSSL
Chain of CYP2C9 (P11712 whole entry): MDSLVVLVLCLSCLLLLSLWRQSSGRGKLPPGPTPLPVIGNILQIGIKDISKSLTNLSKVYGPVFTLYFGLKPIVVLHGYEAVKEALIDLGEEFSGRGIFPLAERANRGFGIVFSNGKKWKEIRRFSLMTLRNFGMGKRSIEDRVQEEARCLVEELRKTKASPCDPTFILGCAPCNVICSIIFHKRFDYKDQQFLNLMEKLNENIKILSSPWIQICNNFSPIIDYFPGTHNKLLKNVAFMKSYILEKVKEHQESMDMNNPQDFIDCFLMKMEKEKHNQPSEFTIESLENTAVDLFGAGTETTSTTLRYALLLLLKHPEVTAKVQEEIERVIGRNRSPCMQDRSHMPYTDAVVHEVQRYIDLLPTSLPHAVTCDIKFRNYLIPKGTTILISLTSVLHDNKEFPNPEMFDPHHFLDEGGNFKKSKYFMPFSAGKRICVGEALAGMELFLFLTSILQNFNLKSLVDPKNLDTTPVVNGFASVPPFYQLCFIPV
Chain of CYP2D6 (P10635 whole entry): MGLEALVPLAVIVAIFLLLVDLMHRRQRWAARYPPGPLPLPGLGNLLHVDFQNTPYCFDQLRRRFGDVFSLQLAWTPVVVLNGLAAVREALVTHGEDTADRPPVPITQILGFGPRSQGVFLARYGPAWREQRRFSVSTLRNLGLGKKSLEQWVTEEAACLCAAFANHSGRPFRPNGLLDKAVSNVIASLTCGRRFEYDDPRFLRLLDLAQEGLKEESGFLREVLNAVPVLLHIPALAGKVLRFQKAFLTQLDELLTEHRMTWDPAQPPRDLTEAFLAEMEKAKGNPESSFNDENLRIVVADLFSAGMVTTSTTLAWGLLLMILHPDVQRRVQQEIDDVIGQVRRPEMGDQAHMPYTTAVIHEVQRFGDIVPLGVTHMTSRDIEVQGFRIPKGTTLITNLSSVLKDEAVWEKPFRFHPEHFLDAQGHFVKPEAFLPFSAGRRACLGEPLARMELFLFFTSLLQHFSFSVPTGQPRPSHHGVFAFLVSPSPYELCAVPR
Chain of CYP3A4 (P08684 whole entry): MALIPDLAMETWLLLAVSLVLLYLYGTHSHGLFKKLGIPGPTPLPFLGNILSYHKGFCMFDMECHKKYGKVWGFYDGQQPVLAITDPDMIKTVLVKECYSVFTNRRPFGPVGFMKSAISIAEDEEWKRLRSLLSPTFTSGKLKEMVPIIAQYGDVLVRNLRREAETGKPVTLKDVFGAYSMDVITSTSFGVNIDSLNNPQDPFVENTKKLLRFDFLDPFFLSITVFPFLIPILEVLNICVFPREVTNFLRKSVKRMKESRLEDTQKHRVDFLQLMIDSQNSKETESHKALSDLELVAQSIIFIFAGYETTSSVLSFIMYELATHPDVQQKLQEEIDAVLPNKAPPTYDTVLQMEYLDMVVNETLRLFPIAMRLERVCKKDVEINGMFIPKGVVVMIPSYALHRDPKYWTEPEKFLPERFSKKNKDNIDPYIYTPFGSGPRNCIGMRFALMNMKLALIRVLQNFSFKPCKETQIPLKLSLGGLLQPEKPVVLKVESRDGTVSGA

SMILES: O=c1n(-c2ccc(F)cc2)ccc2nc(COc3ccccc3)cn12 [3e]
- pIC50 (CYP3A4): < 4.70
- pIC50 (CYP2D6): < 4.70
- pIC50 (CYP1A2): 5.03
- pEC50 (mGlu3 [1]): 6.20
- pEC50 [2]: < 5.00
- pIC50 (CYP2C9): < 4.70

SMILES: O=C1N(c2ccc(F)cc2)CCc2nc(COc3ccccc3)cn21 [4a]
- CNS-mediated side effects, modified Irwin neurological test battery (rats; 120 mg/kg): pro-convulsive behavior
- adverse effects in PK and pharmacological experiments (rats; up to 100 mg/kg p.o.): no significant adverse effects
- mGlu3 % Glu Max (mGlu3 [3]): 3%
- mGlu5 agonistic activity (rat mGlu5 receptors; up to the highest concentration tested of 30 µM): lack of mGlu5 agonistic activity
- solubility [4]: 6 µg/mL (≈ 17.8 µM)
- lowest active oral dose, reversal of AIH [5]: 3 mg/kg
- pEC50 (mGlu3 [1]): 6.54
- CNS-mediated side effects in PK studies (dogs): dizziness
- pEC50 [2]: < 5.00
- clearance (in vivo PK study in rats; in vivo, 1 mg/kg): 23.3 mL/min/kg
- brain AUC (in vivo PK study in rats; 0.5-7.0 h): 12.7 µM-h

SMILES: Cc1cc(N2CCc3nc(COc4ccccc4)cn3C2=O)ccc1F [4c]
- fold increase in mGlu5 potency vs series 3 counterpart (rat mGlu5 receptors): 1.8–2.4 fold

SMILES: O=C1N(c2cccc(F)c2)CCc2nc(COc3ccccc3)cn21 [4b]
- fold increase in mGlu5 potency vs series 3 counterpart (rat mGlu5 receptors): 1.8–2.4 fold

SMILES: O=C1N(c2ccc(F)cc2)CCc2nc(COc3ccc(F)cc3)cn21 [4i]
- fold increase in mGlu5 potency vs series 3 counterpart (rat mGlu5 receptors): ≤ 3.3 fold

SMILES: O=C1N(c2ccc(F)cc2)CCc2nc(COc3cccc(F)c3)cn21 [4h]
- fold increase in mGlu5 potency vs series 3 counterpart (rat mGlu5 receptors): ≤ 3.3 fold
